These results are taken from publication PMC10709440, “High-throughput ligand profile characterization in novel cell lines expressing seven heterologous insect olfactory receptors for the detection of volatile plant biomarkers” (Scientific Reports, 2023).

Experiment [1] deals with OR49b. Set-up: method as in earlier work. Particulars: DoOR database value; ref DoOR; cited from earlier work.
The test system of experiment [2] is OR71a. Set-up: method as in earlier work. Conditions: DoOR database value; ref DoOR; cited from earlier work.
The target in experiment [3] is T1, Drosophila OR85b (Drosophila melanogaster, UniProt Q9VHQ7).
T1 construct: expressed in transfected cells
T1 sequence (Q9VHQ7 1-390): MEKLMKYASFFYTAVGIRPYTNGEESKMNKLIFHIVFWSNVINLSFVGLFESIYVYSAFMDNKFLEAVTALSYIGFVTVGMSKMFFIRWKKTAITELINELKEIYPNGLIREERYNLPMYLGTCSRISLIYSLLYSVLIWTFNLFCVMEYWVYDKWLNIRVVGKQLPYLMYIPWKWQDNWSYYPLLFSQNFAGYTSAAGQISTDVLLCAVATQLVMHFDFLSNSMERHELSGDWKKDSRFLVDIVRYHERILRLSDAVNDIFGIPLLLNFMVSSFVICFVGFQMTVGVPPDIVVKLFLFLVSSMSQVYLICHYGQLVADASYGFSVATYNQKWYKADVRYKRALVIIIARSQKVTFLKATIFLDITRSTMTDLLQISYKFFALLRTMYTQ
T1 sequence (Q9VNB5 1-486 partner): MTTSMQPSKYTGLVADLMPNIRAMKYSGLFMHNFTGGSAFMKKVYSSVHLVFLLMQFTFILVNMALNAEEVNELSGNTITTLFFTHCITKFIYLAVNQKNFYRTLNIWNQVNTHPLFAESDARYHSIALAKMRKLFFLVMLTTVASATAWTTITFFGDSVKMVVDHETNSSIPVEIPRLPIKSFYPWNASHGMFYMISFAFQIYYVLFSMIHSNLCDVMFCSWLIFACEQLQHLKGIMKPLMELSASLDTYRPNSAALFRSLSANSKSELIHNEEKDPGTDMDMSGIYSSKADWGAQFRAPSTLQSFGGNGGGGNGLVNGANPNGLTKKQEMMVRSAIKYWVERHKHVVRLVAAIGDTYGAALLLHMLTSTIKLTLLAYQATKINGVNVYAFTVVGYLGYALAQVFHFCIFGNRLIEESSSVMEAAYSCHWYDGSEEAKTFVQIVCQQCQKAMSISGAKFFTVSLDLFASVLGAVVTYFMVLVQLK
Nature of the experiment: Calcium ion fluorescence (GCaMP6) assay, OR85b stable HEK293 cell line. The experiment is classed as cell-based. Conditions: for activation at 1 µM / activation at 10 µM / activation at 100 µM: HEK293, read-out: OR85b response (VUAA1-normalized response); for Average response: OR85b cell line, VUAA1-normalized response, mean of biological replicates. The essentials: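 HEK293 lines stably expressing each Drosophila OR with GCaMP6, doxycycline-induced (1 μg/mL) 48 or 72 h. Fluorescence recorded 5 s baseline then 30 s after VOC injection at pH 7.3; ΔF=(FMAX−F0)/F0, normalized to 50 µM VUAA1 response per line, triplicate wells averaged; concentration series 0.01–100 μM.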

The subject of experiment [4] is OR13a. Set-up: method as in earlier work. Conditions: DoOR database value; ref DoOR; cited from earlier work.
Experiment [5] has as its system OR98a. Set-up: method as in earlier work. Conditions: DoOR database value; ref DoOR; cited from earlier work.
For experiment [6], the system named is OR10a. More on the design: method as in earlier work. Conditions: DoOR database value; ref DoOR; cited from earlier work.
Experiment [7] concerns OR85b. Set-up: method as in earlier work. Particulars: DoOR database value; ref DoOR; cited from earlier work.
In experiment [8] the test system is OR47a. More on the design: method as in earlier work. Conditions: DoOR database value; ref DoOR; cited from earlier work.
Setting [9] is: ligand concentration 1 (unit not given), threshold 0.05, below shown as 0.
The mark [10] stands for this setting: ligand concentration 10 (unit not given), threshold 0.05, below shown as 0.
[11] abbreviates: ligand concentration 100 (unit not given), threshold 0.05, below shown as 0.
The mark [12] stands for this setting: concentration 1, normalized fluorescence change, values below 0.05 threshold given as 0.
Setting [13] is: concentration 10, normalized fluorescence change, values below 0.05 threshold given as 0.
Setting [14] is: concentration 100, normalized fluorescence change, values below 0.05 threshold given as 0.

Take `CC1=CCC2CC1C2(C)C` (stereo not drawn) [alpha-pinene]: in experiment [1], the “OR49b DoOR response” value was 0.018. The “OR71a DoOR response” value in experiment [2] was 0.04. For the same compound, in experiment [3], the activation at 1 µM worked out at 0%. Also, in experiment [3], the activation at 10 µM came out at 0%. The activation at 100 µM in experiment [3] is 0%. The Average response in experiment [3] (cc. 1 µM) was 0.03; in experiment [3] (cc. 10 µM), 0.00; in experiment [3] (cc. 100 µM), 0.0358. In addition, the “DF norm AVERAGE OR85b” value in experiment [3] (setting [9]), in experiment [3] (setting [10]) and in experiment [3] (setting [11]) was 0 throughout. In addition, the “OR13a DoOR response” value in experiment [4] was 0.10. Moreover, the “OR98a DoOR response” value in experiment [5] is recorded as 0.43. The “OR10a DoOR response” value in experiment [6] is recorded as 0.004. Further, the “OR85b DoOR response” value in experiment [7] is 0.15. Moreover, the “OR47a DoOR response” value in experiment [8] is reported as 0.035.
As for `CCOC(=O)c1ccccc1` [ethyl benzoate], in experiment [1], the “OR49b DoOR response” value is 0.002. For the same compound, the “OR71a DoOR response” value in experiment [2] is given as 0.19. The activation at 1 µM in experiment [3] was found to be 0%. The activation at 10 µM in experiment [3] turned out to be 0%. The activation at 100 µM in experiment [3] was found to be 0%. Moreover, the Average response is listed as 0.0211 in experiment [3] (cc. 1 µM), 0.0371 in experiment [3] (cc. 10 µM) and 0.0138 in experiment [3] (cc. 100 µM). The “DF norm AVERAGE OR85b” value in experiment [3] (setting [9]), in experiment [3] (setting [10]) and in experiment [3] (setting [11]) was 0 in each case. For the same compound, the “OR13a DoOR response” value in experiment [4] was 0.043. For the same compound, in experiment [5], the “OR98a DoOR response” value is 0.78. Besides, the “OR10a DoOR response” value in experiment [6] was 0.68. The “OR85b DoOR response” value in experiment [7] is listed as -0.014. In experiment [8], the “OR47a DoOR response” value is given as 0.06.
As for `Cc1ccc(O)cc1` [4-methylphenol], the “OR49b DoOR response” value in experiment [1] was 0.43. The “OR71a DoOR response” value in experiment [2] was 0.64. The activation at 1 µM in experiment [3] worked out at 0%. Besides, in experiment [3], the activation at 10 µM amounted to 0%. Besides, the activation at 100 µM in experiment [3] came out at 0%. The Average response in experiment [3] (cc. 1 µM) is 0.00; in experiment [3] (cc. 10 µM), 0.04; in experiment [3] (cc. 100 µM) it was 0.00. Moreover, the “DF norm AVERAGE OR85b” value in experiment [3] (setting [12]), in experiment [3] (setting [13]) and in experiment [3] (setting [14]) was 0 throughout. In addition, the “OR13a DoOR response” value in experiment [4] is recorded as 0.019. For the same compound, the “OR98a DoOR response” value in experiment [5] is listed as 0.085. The “OR10a DoOR response” value in experiment [6] is given as 0.24. For the same compound, the “OR85b DoOR response” value in experiment [7] is on record as 0.37. Besides, the “OR47a DoOR response” value in experiment [8] is reported as -0.037.
`CC1=CC[C@@H](C(C)(C)O)CC1` [alpha-terpineol]: the “OR49b DoOR response” value in experiment [1] is listed as 0.006. Besides, the “OR71a DoOR response” value in experiment [2] is listed as 0.008. Also, in experiment [3], the activation at 1 µM stood at 0%. The activation at 10 µM in experiment [3] turned out to be 0%. Also, the activation at 100 µM in experiment [3] was 0%. Also, the Average response is reported as 0.05 in experiment [3] (cc. 1 µM), 0.03 in experiment [3] (cc. 10 µM) and 0.02 in experiment [3] (cc. 100 µM). Moreover, the “DF norm AVERAGE OR85b” value in experiment [3] (setting [9]), in experiment [3] (setting [10]) and in experiment [3] (setting [11]) was 0 throughout. Also, in experiment [4], the “OR13a DoOR response” value was 0.023. The “OR98a DoOR response” value in experiment [5] is 0.033. Further, in experiment [6], the “OR10a DoOR response” value is recorded as -0.005. The “OR85b DoOR response” value in experiment [7] was 0.11. The “OR47a DoOR response” value in experiment [8] is reported as 0.018.
Take `CCCCCC(O)CC` (centres unmarked) [3-octanol]: in experiment [1], the “OR49b DoOR response” value is listed as 0.03. Moreover, the “OR71a DoOR response” value in experiment [2] is reported as 0.01. For the same compound, in experiment [3], the activation at 1 µM is 0%. The activation at 10 µM in experiment [3] stood at 0%. Moreover, the activation at 100 µM in experiment [3] is 0%. The Average response in experiment [3] (cc. 1 µM) turned out to be 0.00; in experiment [3] (cc. 10 µM), 0.00; in experiment [3] (cc. 100 µM), 0.0171. The “DF norm AVERAGE OR85b” value in experiment [3] (setting [12]), in experiment [3] (setting [13]) and in experiment [3] (setting [14]) was 0 throughout. Moreover, the “OR13a DoOR response” value in experiment [4] was 0.58. The “OR98a DoOR response” value in experiment [5] is 0.59. In experiment [6], the “OR10a DoOR response” value is given as 0.12. Also, the “OR85b DoOR response” value in experiment [7] is 0.68. For the same compound, in experiment [8], the “OR47a DoOR response” value is recorded as 0.47.
